Test [1] deals with T1, Alpha-1A adrenergic receptor (Homo sapiens) (UniProt P35348).
T1 sequence (whole entry): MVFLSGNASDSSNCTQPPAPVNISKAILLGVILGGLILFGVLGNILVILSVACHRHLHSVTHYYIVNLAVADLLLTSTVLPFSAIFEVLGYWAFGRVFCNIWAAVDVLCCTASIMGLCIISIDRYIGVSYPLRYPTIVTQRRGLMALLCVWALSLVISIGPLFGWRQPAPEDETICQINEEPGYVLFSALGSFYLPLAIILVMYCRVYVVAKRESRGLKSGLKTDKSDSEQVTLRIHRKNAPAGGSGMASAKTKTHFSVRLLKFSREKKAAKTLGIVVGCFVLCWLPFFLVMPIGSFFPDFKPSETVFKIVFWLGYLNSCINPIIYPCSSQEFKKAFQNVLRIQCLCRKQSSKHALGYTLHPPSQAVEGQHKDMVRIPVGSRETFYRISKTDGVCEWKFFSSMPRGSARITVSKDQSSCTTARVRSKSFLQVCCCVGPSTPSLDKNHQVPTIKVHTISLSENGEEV
As to the kind of experiment: ALPHA1A(H)AGON Eurofins SafetyScreen44 (BI). The conditions noted are these: filed as agonist, Compound concentration 10.0 uM.

For test [2], the target named is Prostaglandin G/H synthase 1 (Homo sapiens) (UniProt P23219). As to the kind of experiment: COX1_HU Eurofins SafetyScreen44 (BI). As to conditions: Compound concentration 10.0 uM.
Chain of Prostaglandin G/H synthase 1 (Homo sapiens) (P23219 whole entry): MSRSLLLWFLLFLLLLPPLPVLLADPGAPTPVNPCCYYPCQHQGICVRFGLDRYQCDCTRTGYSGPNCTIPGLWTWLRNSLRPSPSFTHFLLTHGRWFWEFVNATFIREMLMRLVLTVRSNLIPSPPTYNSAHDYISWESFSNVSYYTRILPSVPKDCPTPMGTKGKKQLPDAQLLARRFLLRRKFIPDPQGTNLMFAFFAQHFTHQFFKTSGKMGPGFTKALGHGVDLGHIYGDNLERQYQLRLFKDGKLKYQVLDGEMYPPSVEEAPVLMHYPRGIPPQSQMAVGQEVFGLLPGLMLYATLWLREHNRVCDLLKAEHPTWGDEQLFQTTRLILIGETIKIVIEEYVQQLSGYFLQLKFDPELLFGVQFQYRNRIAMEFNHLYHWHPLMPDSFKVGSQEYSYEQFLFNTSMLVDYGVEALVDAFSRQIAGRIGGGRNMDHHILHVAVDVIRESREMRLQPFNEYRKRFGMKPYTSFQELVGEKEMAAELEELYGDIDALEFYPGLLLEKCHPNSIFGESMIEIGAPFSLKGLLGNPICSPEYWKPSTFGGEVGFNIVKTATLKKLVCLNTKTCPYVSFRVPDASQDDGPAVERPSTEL
Test [3] addresses GABA-A receptor; anion channel (Rattus norvegicus) (UniProt O09028+P15431+P18506+P18508+P19969+P20236+P23574+P23576+P28471+P28473+P30191+P62813+P63079+P63138+Q91ZM7+Q9ES14). The conditions noted are these: Compound concentration 10.0 uM.
Test [4] addresses Beta-2 adrenergic receptor (Homo sapiens) (UniProt P07550). The conditions noted are these: Compound concentration 10.0 uM.
Test [5] addresses T2, 5-hydroxytryptamine receptor 3A (Homo sapiens) (UniProt P46098).
T2 sequence (whole entry): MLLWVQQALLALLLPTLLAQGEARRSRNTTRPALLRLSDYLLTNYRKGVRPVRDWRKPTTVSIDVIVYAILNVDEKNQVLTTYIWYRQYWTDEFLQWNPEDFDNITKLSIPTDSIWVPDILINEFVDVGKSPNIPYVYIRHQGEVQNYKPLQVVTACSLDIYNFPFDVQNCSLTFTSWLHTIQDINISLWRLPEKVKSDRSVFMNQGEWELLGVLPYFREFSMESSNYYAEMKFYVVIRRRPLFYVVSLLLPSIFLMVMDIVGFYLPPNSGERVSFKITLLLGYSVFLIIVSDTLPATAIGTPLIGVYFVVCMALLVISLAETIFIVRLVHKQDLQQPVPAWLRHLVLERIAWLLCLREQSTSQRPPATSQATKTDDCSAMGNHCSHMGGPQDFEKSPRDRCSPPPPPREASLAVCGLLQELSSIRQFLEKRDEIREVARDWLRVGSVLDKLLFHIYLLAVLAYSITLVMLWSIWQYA
As to conditions: Compound concentration 10.0 uM.

For a further test, the target named is D(1B) dopamine receptor (Homo sapiens, UniProt P21918). Kind of test: GPCRScan assay: inhibition of D5. Further details: radioligand conc. used [nm] 2.0 – 3.0, parental cells HEKT.
Chain of D(1B) dopamine receptor (P21918 whole entry): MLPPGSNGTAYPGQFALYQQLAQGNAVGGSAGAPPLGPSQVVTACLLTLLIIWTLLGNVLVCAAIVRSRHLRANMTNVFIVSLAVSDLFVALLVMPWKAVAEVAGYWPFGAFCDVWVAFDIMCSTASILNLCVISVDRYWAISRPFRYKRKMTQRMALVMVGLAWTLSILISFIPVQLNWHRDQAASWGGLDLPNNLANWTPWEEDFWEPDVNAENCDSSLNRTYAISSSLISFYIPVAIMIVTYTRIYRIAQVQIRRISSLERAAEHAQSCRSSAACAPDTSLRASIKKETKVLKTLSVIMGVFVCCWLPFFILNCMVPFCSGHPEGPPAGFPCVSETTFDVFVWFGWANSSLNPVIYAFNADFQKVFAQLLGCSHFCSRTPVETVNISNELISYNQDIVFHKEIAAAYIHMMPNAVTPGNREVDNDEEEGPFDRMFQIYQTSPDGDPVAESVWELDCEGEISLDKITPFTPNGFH
Test [6] has as its target 5-hydroxytryptamine receptor 7 (Homo sapiens) (UniProt P34969). As to conditions: Compound concentration 10.0 uM.
Test [7] has as its target Prostaglandin G/H synthase 2 (Homo sapiens) (UniProt P35354). As to the kind of experiment: COX2_HU Eurofins SafetyScreen44 (BI). The conditions noted are these: Compound concentration 10.0 uM.
Test [8] concerns the target 5-hydroxytryptamine receptor 1B (Rattus norvegicus) (UniProt P28564). Kind of test: 5HT1B/R Eurofins SafetyScreen44 (BI). As to conditions: Compound concentration 10.0 uM.
In test [9] the target is Sigma intracellular receptor 2 (Homo sapiens) (UniProt Q5BJF2). The conditions noted are these: Compound concentration 10.0 uM.
Chain of Sigma intracellular receptor 2 (Homo sapiens) (Q5BJF2 whole entry): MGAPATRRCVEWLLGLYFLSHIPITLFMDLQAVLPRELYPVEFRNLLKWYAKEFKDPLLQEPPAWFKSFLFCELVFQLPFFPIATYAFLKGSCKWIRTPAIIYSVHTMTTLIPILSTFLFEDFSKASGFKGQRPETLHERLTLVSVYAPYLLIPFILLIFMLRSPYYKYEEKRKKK
The target of test [10] is 5-hydroxytryptamine receptor 1D (Homo sapiens) (UniProt P28221). The conditions noted are these: Compound concentration 10.0 uM.
Chain of 5-hydroxytryptamine receptor 1D (Homo sapiens) (P28221 whole entry): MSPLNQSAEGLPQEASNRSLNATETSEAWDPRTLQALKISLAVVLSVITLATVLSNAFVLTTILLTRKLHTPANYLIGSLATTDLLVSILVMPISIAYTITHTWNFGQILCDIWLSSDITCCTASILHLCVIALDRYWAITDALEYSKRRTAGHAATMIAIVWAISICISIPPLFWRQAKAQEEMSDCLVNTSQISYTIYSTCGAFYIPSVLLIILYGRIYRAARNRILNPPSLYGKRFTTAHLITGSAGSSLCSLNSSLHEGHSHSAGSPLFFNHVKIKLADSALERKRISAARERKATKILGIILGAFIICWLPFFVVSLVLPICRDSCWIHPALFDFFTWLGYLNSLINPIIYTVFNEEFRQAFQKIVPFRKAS
The target in test [11] is Prostaglandin G/H synthase 2 (Homo sapiens) (UniProt P35354). As to the kind of experiment: COX-2 Eurofins SafetyScreen44 (BI). As to conditions: Compound concentration 10.0 uM.
Chain of Prostaglandin G/H synthase 2 (Homo sapiens) (P35354 whole entry): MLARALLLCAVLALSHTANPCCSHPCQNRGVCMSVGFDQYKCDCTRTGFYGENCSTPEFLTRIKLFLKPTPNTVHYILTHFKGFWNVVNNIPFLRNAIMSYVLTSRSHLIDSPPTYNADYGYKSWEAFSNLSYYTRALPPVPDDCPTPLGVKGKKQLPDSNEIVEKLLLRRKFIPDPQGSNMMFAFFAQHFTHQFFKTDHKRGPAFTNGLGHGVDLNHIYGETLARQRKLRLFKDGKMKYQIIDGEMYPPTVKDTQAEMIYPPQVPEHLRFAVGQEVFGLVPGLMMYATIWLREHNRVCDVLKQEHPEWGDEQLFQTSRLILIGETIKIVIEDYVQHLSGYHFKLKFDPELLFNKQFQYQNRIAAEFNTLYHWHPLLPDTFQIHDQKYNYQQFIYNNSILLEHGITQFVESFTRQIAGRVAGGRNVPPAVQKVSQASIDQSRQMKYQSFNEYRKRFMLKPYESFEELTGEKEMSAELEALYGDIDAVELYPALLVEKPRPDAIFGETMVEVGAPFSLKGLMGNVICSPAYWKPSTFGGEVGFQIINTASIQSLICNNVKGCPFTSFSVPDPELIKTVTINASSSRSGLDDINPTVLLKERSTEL
Test [12] deals with 5-hydroxytryptamine receptor 1B (Homo sapiens) (UniProt P28222). As to the kind of experiment: 5HT1B(H) Eurofins SafetyScreen44 (BI). As to conditions: filed as antagonist, Compound concentration 10.0 uM.
Chain of 5-hydroxytryptamine receptor 1B (Homo sapiens) (P28222 whole entry): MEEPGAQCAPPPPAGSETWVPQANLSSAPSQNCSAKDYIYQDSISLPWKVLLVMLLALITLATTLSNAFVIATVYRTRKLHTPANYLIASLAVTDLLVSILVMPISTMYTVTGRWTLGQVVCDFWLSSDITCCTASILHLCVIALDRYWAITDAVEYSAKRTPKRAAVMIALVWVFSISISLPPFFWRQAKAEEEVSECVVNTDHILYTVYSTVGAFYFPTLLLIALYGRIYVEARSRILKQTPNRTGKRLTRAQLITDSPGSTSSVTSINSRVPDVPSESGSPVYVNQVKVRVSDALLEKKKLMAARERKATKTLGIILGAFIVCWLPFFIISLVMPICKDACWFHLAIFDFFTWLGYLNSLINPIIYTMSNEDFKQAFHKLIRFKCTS

The record followed here is ChEMBL document CHEMBL5303762, “Data for DCP probe BI-8668” (2023).

Chain of 5-hydroxytryptamine receptor 7 (Homo sapiens) (P34969 whole entry): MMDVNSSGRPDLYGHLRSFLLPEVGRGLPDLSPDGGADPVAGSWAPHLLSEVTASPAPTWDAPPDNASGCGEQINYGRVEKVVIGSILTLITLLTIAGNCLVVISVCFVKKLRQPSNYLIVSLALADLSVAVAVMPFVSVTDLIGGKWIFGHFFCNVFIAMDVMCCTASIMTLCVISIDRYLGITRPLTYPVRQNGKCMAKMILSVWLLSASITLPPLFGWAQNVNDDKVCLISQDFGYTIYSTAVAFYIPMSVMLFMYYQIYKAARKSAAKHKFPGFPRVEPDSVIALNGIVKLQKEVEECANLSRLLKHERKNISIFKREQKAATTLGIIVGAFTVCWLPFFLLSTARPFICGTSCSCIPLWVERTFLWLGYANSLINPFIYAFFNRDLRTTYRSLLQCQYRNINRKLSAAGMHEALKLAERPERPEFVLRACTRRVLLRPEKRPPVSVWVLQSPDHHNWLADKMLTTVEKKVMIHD
Chain of Beta-2 adrenergic receptor (Homo sapiens) (P07550 whole entry, looked up): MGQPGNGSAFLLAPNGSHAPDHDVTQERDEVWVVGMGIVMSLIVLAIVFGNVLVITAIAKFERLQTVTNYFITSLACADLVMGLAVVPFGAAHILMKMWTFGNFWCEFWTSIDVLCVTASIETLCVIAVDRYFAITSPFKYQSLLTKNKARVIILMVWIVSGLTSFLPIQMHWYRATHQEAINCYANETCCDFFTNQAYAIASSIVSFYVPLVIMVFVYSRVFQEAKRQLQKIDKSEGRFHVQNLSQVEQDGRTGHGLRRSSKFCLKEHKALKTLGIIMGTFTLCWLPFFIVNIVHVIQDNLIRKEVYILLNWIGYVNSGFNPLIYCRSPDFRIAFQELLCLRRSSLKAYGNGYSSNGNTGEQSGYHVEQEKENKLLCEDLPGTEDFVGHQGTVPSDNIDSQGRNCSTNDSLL
Chain of 5-hydroxytryptamine receptor 1B (Rattus norvegicus) (P28564 whole entry): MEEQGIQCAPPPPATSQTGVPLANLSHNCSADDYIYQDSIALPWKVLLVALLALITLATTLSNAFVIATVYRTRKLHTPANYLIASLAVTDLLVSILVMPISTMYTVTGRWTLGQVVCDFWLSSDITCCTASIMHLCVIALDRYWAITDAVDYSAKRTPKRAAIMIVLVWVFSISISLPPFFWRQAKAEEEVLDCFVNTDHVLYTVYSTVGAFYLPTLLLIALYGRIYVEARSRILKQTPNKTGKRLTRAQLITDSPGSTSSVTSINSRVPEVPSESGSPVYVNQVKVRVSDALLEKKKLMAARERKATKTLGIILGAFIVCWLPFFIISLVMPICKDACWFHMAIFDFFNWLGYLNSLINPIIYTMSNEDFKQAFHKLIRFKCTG

Take `CCn1c(CNC(=O)c2nc(Cl)cnc2N)[n+](CC)c2ccc(C(=O)N(C)CCN(C)C)cc21`: the residual activity is 99.6% in test [1], 106% in test [2], 85% in test [7] and 113% in test [8]. The inhibition is 22.4% in test [3]; -5.7% in test [4]; 8.37% in test [5]; 4.76% in test [6]; -0.91% in test [9]; 22.8% in test [10]. The Ki at D(1B) dopamine receptor (read-out: Ki) and on D(1B) dopamine receptor (read-out: pKi (converted)) was 4.07 µM throughout.

With `CCn1c(CNC(=O)c2ncc(C)nc2N)[n+](CC)c2ccc(C(=O)N(C)CN(C)C)cc21`, the residual activity was 82% in [11] and 94% in test [12].
